This note sets out measurements from patent publication US7557244B2, “Substituted biphenyl carboxylic acids and derivatives thereof” (Ortho-McNeil Pharmaceutical, Inc., priority 2006, dated 2009).

The subject of one assay is γ-secretase. The experiment in a line: Screening for γ-secretase-modulating activity, Aβ 42 in SKNBE2 cells carrying APP 695-wild type. The assay is classed as cell-based. The settings on record: read-out: WTAPP SKNBE2 Aβ 42 EC50. The procedure:
Screening of the Compounds of the Invention for γ-Secretase-Modulating Activity
Screening was carried out using SKNBE2 cells carrying the APP 695-wild type, grown in DMEM/NUT-mix F12 (HAM) provided by Gibco (cat no. 31330-38) containing 5% Serum/Fe supplemented with 1% non-essential amino acids.
Cells were grown to near confluency.
The screening was performed using the assay as described in Citron et al (1997) Nature Medicine 3: 67.
IC50-Values of Selected Compounds of the Invention on the γ-Secretase Activity.

Assay [1] has as its system Aβ 42. Description: In vivo Aβ 42 lowering, mouse. The settings on record: oral dose 30 mg/kg at 4 hr time point. The source says: (§1) To determine whether acute administration of an Aβ42 lowering agent would reduce Aβ42 levels in vivo, non-transgenic rodents, e.g. mice or rats can be used. Alternatively, two to three month old Tg2576 mice expressing APP695 containing the “Swedish” variant can be used or a transgenic mouse model developed by Dr. Fred Van Leuven (K. U. Leuven, Belgium) and co-workers, with neuron-specific expression of a clinical mutant of the human amyloid precursor protein [V717I] (Moechars et al., 1999 J. Biol. Chem. 274, 6483). […] Animals of this age have high levels of Aβ in the brain but no detectable Aβ deposition. Mice treated with the Aβ42 lowering agent will be examined and compared to those untreated or treated with vehicle and brain levels of soluble Aβ42 and total Aβ would be quantitated by standard techniques, for example, using ELISA. Treatment periods may vary from hours to days and will be adjusted based on the results of the Aβ42 lowering once a time course of onset of effect can be established.
A typical protocol for measuring Aβ42 lowering in vivo is shown but it is only one of many variations that could be used to optimize the levels of detectable Aβ. For example, aliquots of compounds can be dissolved in DMSO (volume equal to 1/10th of the final formulation volume), vortexed and further diluted (1:10) with a 10% (w/v) hydroxypropyl β cyclodextrin (HBC, Aldrich, Ref No 33,260-7) solution in PBS, where after they are sonicated for 20 seconds.
Aβ42 lowering agents may be administered as a single oral dose given three to four hours before sacrifice and analysis or alternatively could be given over a course of days and the animals sacrificed three to four hours after the final dose is given.
Blood is collected at sacrifice. The blood collection is performed via a heart puncture during anesthesia with a mixture of Ketalar (Ketamin), Rompun (Xylazin 2%) and Atropin (2:1:1) and collected in EDTA treated collection tubes. Blood is centrifuged at 4000 g for 5 minutes at 4° C. and the plasma recovered for analysis. […]

Assay [2] deals with Aβ 42. The experiment in a line: In vivo Aβ 42 lowering, rat. Particulars: oral dose 30 mg/kg at 4 hr time point.
Source text: as §1
A typical protocol for measuring Aβ42 lowering in vivo is shown but it is only one of many variations that could be used to optimize the levels of detectable Aβ. […]

In general, EC50 refers to the concentration at which the effect is half-maximal. With `CC(C)C[C@@H](C(=O)O)c1cc(Nc2cc(C(F)(F)F)ccc2C(F)(F)F)cc(-c2ccc(C(F)(F)F)cc2)c1` [Compound 46, (R)2-[5-(2,5-Bis-trifluoromethyl-phenylamino)-4′-trifluoromethyl-biphenyl-3-yl]-4-methyl-pentanoic acid], in the assay with γ-secretase, the EC50 amounted to 100 nM. For the same molecule, the “Mouse Efficacy % Lowering Aβ 42” value in the assay with Aβ 42 [1] came to 18%. The “Rat Efficacy % Lowering Aβ 42” value with Aβ 42 [2] is listed as 30%.
